{"source": "patent US9670211B2", "about": "“Aza-oxo-indoles for the treatment and prophylaxis of respiratory syncytial virus infection” (Hoffmann-La Roche Inc., priority 2013, dated 2017)", "data": [{"test_system": "RSV Long strain", "assay": "Viral Cytopathic Effect (CPE) Assay", "assay_type": "cell-based", "details": "human respiratory syncytial virus, 144 h; RSV Long strain (ATCC), cell viability after 6 days by Cell Counting kit-8", "protocol": "Viral Cytopathic Effect (CPE) Assay\nTo measure anti-RSV activity of compounds, 96-well plates are seeded with 6×10^3 cells per well in Dulbecco's modified Eagle's medium (DMEM) containing 10% fetal bovine serum (FBS). Cells are infected the next day with sufficient RSV Long strain (ATCC) to produce an approximately 80-90% cytopathic effect after 6 days, in the presence of serial half-log diluted compound in a total volume of 200 μL per well. The viability of cells is assessed after 6 days using Cell Counting kit-8 (Dojindo Molecular Technologies). The absorbance at 450 nm and referenced at 630 nm is measured to determine 50% effective concentration (EC50).", "units": {"EC50": "nM"}, "values": [{"smiles": "O=C1N(Cc2nc3cc(Cl)ccc3n2[C@@H]2CCS(=O)(=O)C2)c2cnccc2C12CC2", "note": "[Example 3-3, 1′-({5-Chloro-1-[(3R)-1,1-dioxidotetrahydrothiophen-3-yl]-1H-benzimidazol-2-yl}methyl)spiro[cyclopropane-1,3′-pyrrolo[2,3-c]pyridin]-2′(1′H)-one]", "EC50": 1.6}, {"smiles": "CS(=O)(=O)[C@H]1C[C@@H](n2c(CN3C(=O)C4(CC4)c4ccncc43)nc3cc(Cl)ccc32)C1", "note": "[Example 1-1, 1′-({5-Chloro-1-[cis-3-(methylsulfonyl)cyclobutyl]-1H-benzimidazol-2-yl}methyl)spiro[cyclopropane-1,3′-pyrrolo[2,3-c]pyridin]-2′(1′H)-one]", "EC50": 10}, {"smiles": "O=C1N(Cc2nc3cc(Cl)ccc3n2C2CCNCC2)c2cnccc2C12CC2", "note": "[Example 10-1, 1′-{[5-Chloro-1-(piperidin-4-yl)-1H-benzimidazol-2-yl]methyl}spiro[cyclopropane-1,3′-pyrrolo[2,3-c]pyridin]-2′(1′H)-one]", "EC50": 78}, {"smiles": "O=C1N(Cc2nc3cc(Cl)ccc3n2C2CCCC2)c2cnccc2C12CC2", "note": "[Example 2-3, 1′-[(5-Chloro-1-cyclopentyl-1H-benzimidazol-2-yl)methyl]spiro[cyclopropane-1,3′-pyrrolo[2,3-c]pyridin]-2′(1′H)-one]", "EC50": 32}, {"smiles": "O=C1N(Cc2nc3cc(Cl)ccc3n2C2CCC(O)C2)c2cnccc2C12CC2", "note": "(centres unmarked) [Example 2-8, 1′-{[5-Chloro-1-(3-hydroxycyclopentyl)-1H-benzimidazol-2-yl]methyl}spiro[cyclopropane-1,3′-pyrrolo[2,3-c]pyridin]-2′(1′H)-one]", "EC50": 11}, {"smiles": "O=C1N(Cc2nc3cc(Cl)ccc3n2C2COC2)c2cnccc2C12CC2", "note": "[Example 2-4, 1′-{[5-Chloro-1-(oxetan-3-yl)-1H-benzimidazol-2-yl]methyl}spiro[cyclopropane-1,3′-pyrrolo[2,3-c]pyridin]-2′(1′H)-one]", "EC50": 70}, {"smiles": "O=C1N(Cc2nc3cc(Cl)cc(F)c3n2C2CS(=O)(=O)C2)c2cnccc2C12CC2", "note": "[Example 6, 1′-{[5-Chloro-1-(1,1-dioxidothietan-3-yl)-7-fluoro-1H-benzimidazol-2-yl]methyl}spiro[cyclopropane-1,3′-pyrrolo[2,3-c]pyridin]-2′(1′H)-one]", "EC50": 0.9}, {"smiles": "CCN1CC(n2c(CN3C(=O)C4(CC4)c4ccncc43)nc3cc(Cl)ccc32)CC1=O", "note": "(centres unmarked) [Example 8-2, 1′-{[5-Chloro-1-(1-ethyl-5-oxopyrrolidin-3-yl)-1H-benzimidazol-2-yl]methyl}spiro[cyclopropane-1,3′-pyrrolo[2,3-c]pyridin]-2′(1′H)-one]", "EC50": 1.1}, {"smiles": "O=C1N(Cc2nc3cc(Cl)cnc3n2C2CCS(=O)(=O)C2)c2cnccc2C12CC2", "note": "(centres unmarked) [Example 2-13, 1′-{[6-Chloro-3-(1,1-dioxidotetrahydrothiophen-3-yl)-3H-imidazo[4,5-b]pyridin-2-yl]methyl}spiro[cyclopropane-1,3′-pyrrolo[2,3-c]pyridin]-2′(1′H)-one]", "EC50": 15}, {"smiles": "O=C1N(Cc2nc3cc(Cl)ccc3n2C2CCOC2)c2cnccc2C12CC2", "note": "(centres unmarked) [Example 2-14, 1′-{[5-Chloro-1-(tetrahydrofuran-3-yl)-1H-benzimidazol-2-yl]methyl}spiro[cyclopropane-1,3′-pyrrolo[2,3-c]pyridin]-2′(1′H)-one]", "EC50": 6}, {"smiles": "CC1(C)C(=O)N(Cc2nc3cc(Cl)ccc3n2C2CS(=O)(=O)C2)c2cnccc21", "note": "[Example 4-2, 1-{[5-Chloro-1-(1,1-dioxidothietan-3-yl)-1H-benzimidazol-2-yl]methyl}-3,3-dimethyl-1,3-dihydro-2H-pyrrolo[2,3-c]pyridin-2-one]", "EC50": 95}, {"smiles": "C[C@]1(O)C[C@H](n2c(CN3C(=O)C4(CC4)c4ccncc43)nc3cc(Cl)ccc32)C1", "note": "[Example 2-17, 1′-{[5-Chloro-1-(trans-3-hydroxy-3-methylcyclobutyl)-1H-benzimidazol-2-yl]methyl}spiro[cyclopropane-1,3′-pyrrolo[2,3-c]pyridin]-2′(1′H)-one]", "EC50": 5}, {"smiles": "O=C1N(Cc2cc3cc(Cl)ccc3n2C2CCS(=O)(=O)C2)c2cnccc2C12CC2", "note": "(centres unmarked) [Example 18, 1′-{[5-Chloro-1-(1,1-dioxidotetrahydrothiophen-3-yl)-1H-indol-2-yl]methyl}spiro[cyclopropane-1,3′-pyrrolo[2,3-c]pyridin]-2′(1′H)-one]", "EC50": 1.9}, {"smiles": "O=C1N(Cc2nc3cc(Cl)cc(F)c3n2[C@H]2CCS(=O)(=O)C2)c2cnccc2C12CC2", "note": "[Example 9-1, 1′-({5-Chloro-1-[(3S)-1,1-dioxidotetrahydrothiophen-3-yl]-7-fluoro-1H-benzimidazol-2-yl}methyl)spiro[cyclopropane-1,3′-pyrrolo[2,3-c]pyridin]-2′(1′H)-one]", "EC50": 13}, {"smiles": "CN1CC(n2c(CN3C(=O)C4(CC4)c4ccncc43)nc3cc(Cl)ccc32)CC1=O", "note": "(centres unmarked) [Example 8-1, 1′-{[5-Chloro-1-(1-methyl-5-oxopyrrolidin-3-yl)-1H-benzimidazol-2-yl]methyl}spiro[cyclopropane-1,3′-pyrrolo[2,3-c]pyridin]-2′(1′H)-one]", "EC50": 6}, {"smiles": "O=C1N(Cc2nc3cc(Cl)ccc3n2[C@H]2CCS(=O)(=O)C2)c2cnccc2C12CC2", "note": "[Example 3-2, 1′-({5-Chloro-1-[(3S)-1,1-dioxidotetrahydrothiophen-3-yl]-1H-benzimidazol-2-yl}methyl)spiro[cyclopropane-1,3′-pyrrolo[2,3-c]pyridin]-2′(1′H)-one]", "EC50": 10}, {"smiles": "O=C1N(Cc2nc3cc(Cl)ccc3n2C2CC3(C2)CS(=O)(=O)C3)c2cnccc2C12CC2", "note": "[Example 2-1, 1′-{[5-Chloro-1-(2,2-dioxido-2-thiaspiro[3.3]hept-6-yl)-1H-benzimidazol-2-yl]methyl}spiro[cyclopropane-1,3′-pyrrolo[2,3-c]pyridin]-2′(1′H)-one]", "EC50": 4}, {"smiles": "O=C1N(Cc2cc3cc(Cl)cnc3n2C2CCS(=O)(=O)C2)c2cnccc2C12CC2", "note": "(centres unmarked) [Example 19, 1′-{[5-Chloro-1-(1,1-dioxidotetrahydrothiophen-3-yl)-1H-pyrrolo[2,3-b]pyridin-2-yl]methyl}spiro[cyclopropane-1,3′-pyrrolo[2,3-c]pyridin]-2′(1′H)-one]", "EC50": 6}, {"smiles": "O=C1N(Cc2nc3cc(Cl)ccc3n2C(CO)CO)c2cnccc2C12CC2", "note": "[Example 2-16, 1′-{[5-Chloro-1-(1,3-dihydroxypropan-2-yl)-1H-benzimidazol-2-yl]methyl}spiro[cyclopropane-1,3′-pyrrolo[2,3-c]pyridin]-2′(1′H)-one]", "EC50": 122}, {"smiles": "O=C1N(Cc2cc3cc(Cl)cc(F)c3n2C2CCS(=O)(=O)C2)c2cnccc2C12CC2", "note": "(centres unmarked) [Example 17, 1′-{[5-Chloro-1-(1,1-dioxidotetrahydrothiophen-3-yl)-7-fluoro-1H-indol-2-yl]methyl}spiro[cyclopropane-1,3′-pyrrolo[2,3-c]pyridin]-2′(1′H)-one]", "EC50": 0.6}, {"smiles": "CS(=O)(=O)N1CC(n2c(CN3C(=O)C4(CC4)c4ccncc43)nc3cc(Cl)ccc32)C1", "note": "[Example 12, 1′-({5-Chloro-1-[1-(methylsulfonyl)azetidin-3-yl]-1H-benzimidazol-2-yl}methyl)spiro[cyclopropane-1,3′-pyrrolo[2,3-c]pyridin]-2′(1′H)-one]", "EC50": 1.8}, {"smiles": "O=C1CC(n2c(CN3C(=O)C4(CC4)c4ccncc43)nc3cc(Cl)ccc32)CCN1", "note": "(centres unmarked) [Example 2-10, 1′-{[5-Chloro-1-(2-oxopiperidin-4-yl)-1H-benzimidazol-2-yl]methyl}spiro[cyclopropane-1,3′-pyrrolo[2,3-c]pyridin]-2′(1′H)-one]", "EC50": 5}, {"smiles": "O=C1N(Cc2nc3cc(Cl)ccc3n2C2CNS(=O)(=O)C2)c2cnccc2C12CC2", "note": "(centres unmarked) [Example 15, 1′-{[5-Chloro-1-(1,1-dioxido-1,2-thiazolidin-4-yl)-1H-benzimidazol-2-yl]methyl}spiro[cyclopropane-1,3′-pyrrolo[2,3-c]pyridin]-2′(1′H)-one]", "EC50": 1.6}, {"smiles": "O=C1CC(n2c(CN3C(=O)C4(CC4)c4ccncc43)nc3cc(Cl)ccc32)CN1", "note": "(centres unmarked) [Example 7-2, 1′-{[5-Chloro-1-(5-oxopyrrolidin-3-yl)-1H-benzimidazol-2-yl]methyl}spiro[cyclopropane-1,3′-pyrrolo[2,3-c]pyridin]-2′(1′H)-one]", "EC50": 9}, {"smiles": "O=C1N(Cc2nc3cc(Cl)ccc3n2C2CCS(=O)(=O)CC2)c2cnccc2C12CC2", "note": "[Example 2-2, 1′-{[5-Chloro-1-(1,1-dioxidotetrahydro-2H-thiopyran-4-yl)-1H-benzimidazol-2-yl]methyl}spiro[cyclopropane-1,3′-pyrrolo[2,3-c]pyridin]-2′(1′H)-one]", "EC50": 6}, {"smiles": "O=C1N(Cc2nc3cc(Cl)ccc3n2C2CNC3(COC3)C2)c2cnccc2C12CC2", "note": "(centres unmarked) [Example 16, 1′-{[5-Chloro-1-(2-oxa-5-azaspiro[3.4]oct-7-yl)-1H-benzimidazol-2-yl]methyl}spiro[cyclopropane-1,3′-pyrrolo[2,3-c]pyridin]-2′(1′H)-one]", "EC50": 2.2}, {"smiles": "O=C1N(Cc2nc3cc(Cl)ccc3n2C2CCC(F)(F)C2)c2cnccc2C12CC2", "note": "(centres unmarked) [Example 2-11, 1′-{[5-Chloro-1-(3,3-difluorocyclopentyl)-1H-benzimidazol-2-yl]methyl}spiro[cyclopropane-1,3′-pyrrolo[2,3-c]pyridin]-2′(1′H)-one]", "EC50": 17}, {"smiles": "O=C1N(Cc2nc3cc(Cl)ccc3n2C2CCOCC2)c2cnccc2C12CC2", "note": "[Example 2-6, 1′-{[5-Chloro-1-(tetrahydro-2H-pyran-4-yl)-1H-benzimidazol-2-yl]methyl}spiro[cyclopropane-1,3′-pyrrolo[2,3-c]pyridin]-2′(1′H)-one]", "EC50": 23}, {"smiles": "O=C1N(Cc2nc3cc(Cl)ccc3n2C2CNC2)c2cnccc2C12CC2", "note": "[Example 10-2, 1′-{[1-(Azetidin-3-yl)-5-chloro-1H-benzimidazol-2-yl]methyl}spiro[cyclopropane-1,3′-pyrrolo[2,3-c]pyridin]-2′(1′H)-one]", "EC50": 138}]}]}
